Laboratory results: patent US20100099109A1, “Methods for Analyzing Drug Response” (NODALITY, INC., A DELAWARE CORPORATION, priority 2008, published 2010)
Entries after “also recorded” stand apart in the source; their conditions may differ.

Tests used:
primary AML cell sample = test: Mylotarg response signatures (DNA damage response by p-CHK2/p-H2AX; apoptosis by cleaved PARP, FSC and viability dyes), flow cytometry; assay type: cell-based, human
Description: The present illustrative example represents how to analyze cells in one embodiment of the present invention. There are several steps in the process, such as treatment with modulator, incubation with antibodies, and processing sample for acquisition of cells on the cytometer. Treatment with modulator(s) can start with thawed cryopreserved cells and end with cells fixed in PFA and permeabilized in methanol. Then the cells can be incubated with an antibody directed to a particular protein of interest and then analyzed using a flow cytometer. A protocol similar to the following was used to analyze AML cells from patient samples. The materials and methods described in this example can be used and/or were used in the other examples described below.
Cell thawing and live/dead staining: Cells are thawed_in a 37° C. water bath, gently resuspend in the vial, and transferred to a 15 mL conical tube. The 15 mL tube is centrifuged at 930 RPM (200×g) for 8 minutes at room temperature. The supernatant is then aspirated, and the pellet is gently resuspended in 1 mL media A. The cell suspension is filtered through a 70 um cell strainer into a new 15 mL tube. The cell strainer is then rinsed with 1 mL media A and another 12 mL of media A into the 15 mL tube. Collected cells are then mixed into an even suspension. A 20 μl, aliquot of this suspension is immediately transferred into a 96-well plate containing 180 μl, PBS+4% FBS+CD45 Alexa 700+PI to determine cell count and viability post spin. After the determination, the 15 mL tubes are centrifuged at 930 RPM (200×g) for 8 minutes at room temperature. The resulting supernatant is aspirated, and the cells are gently resuspended in 4 mL PBS+4 μl, Amine Aqua (another equivalent viability dye can be used instead) and incubated for 15 min in a 37° C. incubator. 10 mL RPMI+1% FBS are added to the cell suspension, followed by inversion mixing. The 15 mL tubes are centrifuged at 930 RPM (200×g) for 8 minutes at room temperature. The stained cells are then resuspended in Media A at the desired cell concentration (1.25×10^6/mL). • a. Samples with low numbers of cells (<18.5×10^6) are resuspend in up to 15 mL of media. • b. For samples with high numbers of cells (>18.5×10^6), the volume is raised to 10 mL with media A and the desired volume is transferred to a new 15 mL tube, adjusting the cell concentration to 1.25×10^6 cells/mL. 1.6 mL of the above cell suspension are then transferred into wells of a multi-well plate, from which 80 ul are distributed into each well of a subsequent plate. Plates are covered with a lid (Nunc) and placed in a 37° C. incubator for 2 hours to rest.
Treatment of Cells with a Modulator: A concentration for each stimulant that is five fold (5×) more than the final concentration is prepared using Media A as diluent. The 5× stimulants are arrayed in a standard 96 well v-bottom plate that correspond to the wells on the plate with cells to be stimulated. Fixative is prepared by dilution of stock 16% paraformaldehyde with PBS to a concentration that is 1.5×, then placed in a 37° C. water bath. Once the plated cells have completed their incubation, the plate(s) are taken out of the incubator and place in a 37° C. water bath next to the pipette apparatus. Prior to addition of stimulant, each plate of cells is taken from the water bath and gently swirled to resuspend any settled cells. The stimulant is pipetted into the cell plate, which is then held over a vortexer set to “7” and mixed for 5 seconds, and followed by the return of the deep well plate to the water bath.
Fixing Cells: 200 μL of the fixative solution (final concentration is 1.6%) is dispensed into wells and then mixed on the titer plate shaker on high for 5 seconds. The plate is then covered with foil sealer and floated in 37° C. water bath for 10 min, followed by a 6 min spin at 2000 rpm at room temperature.

U937 cell line = test: Mylotarg/Nocodazole exposure, multiparameter flow cytometry of DNA damage, cell cycle and apoptosis; assay type: cell-based
Source text: (§1) ATM activity also phosphorylates Chk2 and p53. […] Cyclin B1 is produced during the G2 phase of the cell cycle and its accumulation drives the cell cycle into M phase. Therefore, low levels of Cyclin B1 mark G1 and S phases, high levels mark G2 phase, and higher levels mark M phase. Histone H3 (S28) becomes phosphorylated in M phase, making p-Histone H3(S28) a useful marker of cells in M phase and not G2. It is also possible to monitor the G2/M phases of the cell cycle by measuring the phosphorylation status of Cdk1, previously known as Cdc2, a cyclin-dependent protein kinase that controls the cell cycle entry from G2 to M phase. An inhibitory phosphorylation on Cdk1 is removed by CDC25C in the M phase transition, allowing G2 cells to be distinguished from M cells based on levels of p-Cdk1. […] Treating cells with the microtubule polymerization inhibitor Nocodazole induces cells cycle arrest in M phase without DNA damage.
(§2) The experimental measurements included forward and side scatter, the use of viability dyes (amine aqua and propidium iodide (PI)), and determination of cell cycle and apoptosis by measuring DNA content with DRAQ5. Additionally, cell cycle progression was measured by determining levels of cyclin B1, phosphorylated histone H3, and phosphorylated CDK-1. All these determinations were made in freshly thawed as well as in cultured cycling cells.
(§3) After incubation with fluorochrome-conjugated antibody panels that recognized: p-H2AX, p-Chk2, p-ATM, p-53, cleaved PARP and cleaved caspase 3, cells were processed for cytometry as described above.

GDM-1 cells = test: Mylotarg exposure, multiparameter flow cytometry of DNA damage, cell cycle and apoptosis; assay type: cell-based
Source text: as §1, §2
(§4) The experiments were conducted in a similar fashion as shown above for examples 1 and 2. […] After incubation with fluorochrome-conjugated antibody panels that recognized: p-H2AX, p-Chk2, p-ATM, p-53, cleaved PARP and cleaved caspase 3, cells were processed for cytometry as described above.

KG-1 cells = test: as above; assay type: cell-based
Source text: as §1, §2, §4

Ramos cells = test: Mylotarg exposure, multiparameter flow cytometry of DNA damage and cell cycle; assay type: cell-based
Source text: as §1
as §2, with “cells. […]” for “cells.”

[1] = system: Peripheral blood mononuclear cells and bone marrow mononuclear cells derived from AML and healthy samples; test: Expression marker levels after Mylotarg exposure; assay type: cell-based
Healthy myeloid cells = test: Mylotarg treatment of healthy myeloid cells (DNA damage and apoptosis); assay type: cell-based; conditions: at 72 h
Source text: In some embodiments, the invention may identify a set of drug response signatures in disease cells. The drug response signature is a profile of the activation levels of activatable elements following in vitro exposure of patient samples to a drug and one or more modulators, and can predict whether patients may respond to the drug. […] In some embodiments, other measurements of cell viability may be used, for example cleaved caspase 3, or amount of dyes staining or other stains, for example: propidium idodide, SYTOX, TUNEL, or acridine orange. […] For review, see van Attikum H., and Gasser S. M. Trends in Cell Biology 19: pp. 207-17 (2009). ATR and ATM kinase activity in response to DNA damage activates Chk1 and Chk2, respectively. […] For review, see Abraham, R. T. Cell cycle checkpoint signaling through the ATM and ATR kinases. Genes & Dev. 15: 2177-96 (2001). […] This is also seen at earlier timepoints.

[2] = system: Mylotarg sensitive cell lines; test: Mylotarg exposure and modulated signaling in sensitive cell lines; assay type: cell-based
Description: as §2, §3
(§5) Experiments were conducted in which cell lines were exposed for 5-15 minutes to growth factors and cytokines, after which cells were fixed, permeabilized and incubated with panels of fluorochrome-conjugated antibody panels that recognized intracellular signaling molecules. After processing, cells were acquired on the cytometer.

[3] = system: Mylotarg refractory cell lines; test: Mylotarg exposure and modulated signaling in resistant cell lines; assay type: cell-based
Description: as §2, §3, §5

[4] = lyophilized powder; cited from earlier work

What does the source list for gemtuzumab ozogamicin [Mylotarg]?
CD33++ cells with induced DNA damage response, as measured by p-CHK2 and p-H2AX (primary AML cell sample; signature 1 sample, 6 hours of exposure to Mylotarg): approximately 60%; live myeloid cells becoming PARP+ (primary AML cell sample; signature 1 sample, after 24 and 48 hours): 22%; CD33++ cells with induced DNA damage response, as measured by p-CHK2 and p-H2AX (primary AML cell sample; signature 2 sample, 6 hours of exposure to Mylotarg): approximately 80%; live myeloid cells becoming PARP+ (primary AML cell sample; signature 2 sample, after 24 or 48 hours): 4%; live myeloid cells becoming PARP+ (primary AML cell sample; signature 3 sample): 8%; CD33+ cells with induced DNA damage response, as measured by p-CHK2 and p-H2AX (primary AML cell sample; signature 3 sample, 6 hours of exposure to Mylotarg): approximately 15%; DNA damage response (levels of p-H2AX, p-Chk2, p-ATM, p-53) (U937 cell line): increased levels; also recorded: significant increase; cell cycle arrest (Cyclin B1, p-Histone H3(S28), p-Cdk1) (U937 cell line; 24 hours exposure): arrest at the G2/M checkpoint; cell cycle arrest (Cyclin B1, p-Histone H3(S28)) (U937 cell line; 48 hours exposure): arrest at the G2/M checkpoint, and a minor cell population with increased p-histone H3(S28), indicating minor arrest in M phase; DNA damage response (levels of p-H2AX, p-p53, p-Chk2, p-ATM) (GDM-1 cells): does not induce changes; also recorded: this was not the case; cell cycle arrest and apoptosis after Mylotarg treatment (GDM-1 cells): resistant to cell cycle arrest and apoptosis; proportion of populations of cells arrested in the cell cycle (p-Histone H3(S28), p-CDK1, CyclinB1) (GDM-1 cells): does not largely increase; DNA damage response (levels of p-H2AX, p-p53, p-Chk2, p-ATM) (KG-1 cells): does not induce changes; also recorded: this was not the case; cell cycle arrest and apoptosis after Mylotarg treatment (KG-1 cells): resistant to cell cycle arrest and apoptosis; proportion of populations of cells arrested in the cell cycle (p-Histone H3(S28), p-CDK1, CyclinB1) (KG-1 cells): does not largely increase; DNA damage response (levels of p-H2AX, p-p53, p-Chk2, p-ATM) (Ramos cells): does not induce changes; proportion of populations of cells arrested in the cell cycle (p-Histone H3(S28), p-CDK1, CyclinB1) (Ramos cells): does not largely increase; expression levels of the CD33 and CD13 phenotypic markers for myeloid cells ([1]; exposed for 6 hours): reduction; CD11b levels ([1]; same exposure conditions): remain unchanged; CD13 levels ([1]; twenty-four (24) hours of exposure): reduced; cleaved PARP and apoptosis (Healthy myeloid cells): increases in cleaved PARP and apoptosis; levels of p-Chk2, p-H2AX, p-ATM, p-P53 (Healthy myeloid cells): increased levels; G2/M arrest [2]: G2/M arrest; cyclin B1 levels [2]: increase in cyclin B1 levels; also recorded: increased cyclin B1 levels; p-H2AX and p-Chk2 [2]: increased p-H2AX and p-Chk2 without transporter inhibitor; cell death (scatter, viability and DNA content dyes) ([2]; compared to refractory cell lines): more cell death; also recorded: increased percentage of dead cells; G2/M arrest [3]: failure to undergo G2/M arrest; cell death [3]: only modest increase in cell death; cyclin B1 levels [3]: failure to increase cyclin B1 levels; p-H2AX and p-Chk2 [3]: minimal increase in p-H2AX and p-Chk2; light sensitivity of the drug product [4]: light sensitive
